# Assay results reported in patent publication US8552035B2, “Phenanthrenone compounds, compositions and methods” (Pfizer Inc., priority 2008, dated 2013).
# What was measured:
# IFNγ = assay: LPS-induced human whole blood, IFNγ release; format: cell-based; conditions: Homo sapiens, mean of donors
# Experimental: (§1) Venous blood from human donors was collected as 10 ml aliquots in tubes containing sodium heparin (BD Vacutainer from Becton Dickinson and Company, Franklin Lakes, N.Y.). Blood was added to sterile polystyrene round bottom 96-well tissue culture plates (Corning Costar) at 180 Blood was placed in a humidified 37 C incubator with 5% CO2 while compounds were prepared (nearly 60 minutes).
# (§2) Compounds were prepared from 10 mM stock solutions in dimethylsulfoxide (DMSO, Sigma-Aldrich). Stock compound was diluted in DMSO to give appropriate starting concentration then diluted serially 1/3 in DMSO (i.e. 15 μl compound+30 μl DMSO), followed by diluting each serial dilution 1/167 into vehicle solution (2% DMSO in phosphate buffered saline (Dulbecco's Phosphate Buffered Saline without calcium chloride without magnesium chloride, Invitrogen Corporation, Carlsbad Calif.)). Compound or vehicle was added to blood in 10 μl aliquots as triplicates, omitting the outside wells to minimize possible edge effects. The final highest concentration of each compound in the assay ranged from 3 to 0.3 μM. Final DMSO concentration in the assay was 0.1%. The plate containing the samples was gently vortexed to mix and replaced in the incubator. LPS stock (E. coli serotype 0111:B4, Sigma-Aldrich), stored in aliquots of 100 μg/ml in RPMI at −20° C., was diluted […] in RPMI to make a working stock solution. After 60 minutes of incubation, 10 μl of the prepared LPS working stock was added to the blood to a final concentration of 100 ng/ml. Wells to be used as negative control received RPMI media with no LPS. The plate was again gently vortexed and the plates incubated overnight for 22 hours. Following incubation, the blood was centrifuged at 1500×g for 5 minutes and the plasma removed to either freeze at −20° C. or assay for cytokine release.
# (§3) IL-1β, IFNγ and TNFα protein levels were measured using Meso Scale assay kits (Meso Scale Discovery, Gaithersburg, Md., U.S.A.). Reagents were allowed to come to room temperature. Meso Scale plates were blocked with 150 μl of Meso Scale Block B diluent, gently shaking at room temperature for 60 minutes. Plates were washed 3× with wash buffer (PBS, Invitrogen Corporation, with 0.05% Tween-20, Sigma-Aldrich). Calibrators for standard curves were prepared in human plasma/serum assay diluent as a 1/5 serial dilution to achieve final concentrations ranging from 50000 pg/ml to 3.2 pg/ml. Samples were added at 10 to 20 μl/well and calibrators were added at 20 μl/well then incubated at room temperature with gentle shaking for 2 hours. Plates were again washed 3× with wash buffer. Detection antibody was diluted in human plasma/serum antibody diluent to 1 μg/ml and added to the plate at 20 μl/well. Plates were incubated as before for 2 hours and washed again. Read Buffer T (4×) was diluted 1:1 with mqH20 to 2× concentration and 150 μl added to each well. Plates were read on the SECTOR Imager 6000 (Meso Scale Discovery) to generate raw signal values.
# (§4) Individual sample signal values were compared to positive and negative controls (vehicle treated blood with LPS and vehicle treated blood without LPS, respectively) to generate % inhibition. Triplicate values were averaged for each donor. The values for three or four donors were averaged and graphed using 4-parameter fit curves in the LabStats plug-in for the Microsoft Excel application.
# TNFα = assay: LPS-induced human whole blood, TNFα release; format: cell-based; conditions: Homo sapiens, mean of donors
# Experimental: as §1, §2, §3, §4
# IL-1β = assay: LPS-induced human whole blood, IL-1β release; format: cell-based; conditions: Homo sapiens, mean of donors
# Experimental: as §1, §2, §3, §4
# IL-6 = assay: LPS-induced human whole blood, IL-6 release; format: cell-based; conditions: mean of donors
# LPS-induced TNFα = assay: 28-day mouse side-effect model, LPS-induced serum TNFα suppression; format: in vivo; conditions: oral gavage 28 days, LPS challenge
# Experimental: (§5) 10-12 week old female Swiss Webster mice (Taconic, Germantown, N.Y., U.S.A.) weighing 27-29 grams are used in accordance with the guidelines of the Institutional Animal Care and Use Committee and in accordance with NIH guidelines on laboratory animal welfare. Mice are acclimated to the Pfizer animal facility for 3-7 days prior to being placed on study. Prednisolone and DAGR compounds are administered by oral gavage for a total of 28 days. Each treatment group generally contains 8-10 mice. To establish a dosing regimen for the studies, a pilot pharmacodynamic time course experiment is conducted to quantify TNFa repression after a single ED80 dose (determined from the acute LPS endotoxemia mouse model). […] DAGR compounds vary in their required frequency of doses.
# (§6) Body weights are measured on the first and last day of each experiment. Blood samples are obtained after ˜3 weeks of dosing for steady-state pharmacokinetic analysis. To assess compound effects on LPS-induced TNF-a, all mice receive an intraperitoneal injection of LPS (Salmonella Typhosa, Sigma, St. Louis, L-7895) 2.5 hr after the last dose on day 28. Mice are sacrificed 90 min. after LPS administration. Serum samples are assayed for osteocalcin and TNFa using the Linco multiplex assay (St. Charles, Mo.) and Luminex 100 (Austin, Tex.). Samples are diluted 1:20 and the assay is run according to manufacturer's instructions. An osteocalcin standard is purchased separately from Biomedical Technologies Incorporated (Stoughton, Mass.). Serum insulin is measured to assess compound effects on insulin resistance. Insulin was measured using the UltraSensitive Mouse EIA kit from Alpco Diagnostics (Salem, N.H.) following the manufacturer's protocol.
# (§7) ED50 and ED80 values are obtained for the various parameters using four-parameter logistic fits of data. For each experiment/dose group, outliers are detected by calculating the number of standard deviations each mouse's value was from the mean of their group and then dividing by the standard deviation of the group. The means and standard deviations used in this calculation omitted the value being examined so that, if it were an outlier, it would have no influence. If the value being examined is more than 2.5 standard deviations from the mean, it was not used in the rest of the calculations.
# (§8) Percent inhibition values are then calculated for each animal using the means of the vehicle and 10 mpk prednisone control groups. The individual mouse percent inhibition values are then fit to a four-parameter logistic model using the area under curve mean for each group. Since all four parameters are estimated and the lower plateau is not fixed at 0% and the upper plateau was not fixed at 100%, the ED50 and ED80 values are calculated by using an inverse calibration formula for a response equal to 50% or 80%. The designation “nd” means not determined.
# osteocalcin = assay: 28-day mouse side-effect model, serum osteocalcin suppression; format: in vivo; conditions: oral gavage 28 days
# Experimental: as §5, §6, §7, §8
# serum insulin = assay: 28-day mouse side-effect model, serum insulin; format: in vivo; conditions: oral gavage 28 days
# Experimental: as §5, §6, §7, §8
structure (smiles),measurement,setting,value
"Cc1ncccc1CNC(=O)c1ccc2c(c1)CC[C@@H]1C[C@@](O)(CCC(F)(F)F)CC[C@@]21Cc1ccccc1 [Comparator A, (4βS,7S,8αR)-4β-benzyl-7-hydroxy-N-((2-methylpyridin-3-yl)methyl)-7-(3,3,3-trifluoropropyl)-4β,5,6,7,8,8α,9,10-octahydrophenanthrene-2-carboxamide]",inhibition at 0.00137174 µM,IFNγ; 1.371742 nM,18.1%
same,inhibition at 0.00411523 µM,IFNγ; 4.115226 nM,-1.7%
same,inhibition at 0.0123457 µM,IFNγ; 12.34568 nM,0.016%
same,inhibition at 0.037037 µM,IFNγ; 37.03704 nM,-9.81%
same,inhibition at 0.111111 µM,IFNγ; 111.1111 nM,8.74%
same,inhibition at 0.333333 µM,IFNγ; 333.3333 nM,-6.32%
same,inhibition at 1 µM,IFNγ; 1000 nM,16.5%
same,inhibition at 3 µM,IFNγ; 3000 nM,28%
same,inhibition at 0.00137174 µM,TNFα; 1.371742 nM,18.1%
same,inhibition at 0.00411523 µM,TNFα; 4.115226 nM,-0.861%
same,inhibition at 0.0123457 µM,TNFα; 12.34568 nM,0.0309%
same,inhibition at 0.037037 µM,TNFα; 37.03704 nM,-4.19%
same,inhibition at 0.111111 µM,TNFα; 111.1111 nM,-3.82%
same,inhibition at 0.333333 µM,TNFα; 333.3333 nM,-4.61%
same,inhibition at 1 µM,TNFα; 1000 nM,-5.44%
same,inhibition at 3 µM,TNFα; 3000 nM,-3.04%
same,inhibition at 0.00137174 µM,IL-1β; 1.371742 nM,32%
same,inhibition at 0.00411523 µM,IL-1β; 4.115226 nM,22%
same,inhibition at 0.0123457 µM,IL-1β; 12.34568 nM,22.8%
same,inhibition at 0.037037 µM,IL-1β; 37.03704 nM,17.3%
same,inhibition at 0.111111 µM,IL-1β; 111.1111 nM,8.6%
same,inhibition at 0.333333 µM,IL-1β; 333.3333 nM,12.2%
same,inhibition at 1 µM,IL-1β; 1000 nM,15%
same,inhibition at 3 µM,IL-1β; 3000 nM,16.4%
same,inhibition at 0.00137174 µM,IL-6; 1.371742 nM,1.46%
same,inhibition at 0.00411523 µM,IL-6; 4.115226 nM,-4.34%
same,inhibition at 0.0123457 µM,IL-6; 12.34568 nM,-1.13%
same,inhibition at 0.037037 µM,IL-6; 37.03704 nM,-3.52%
same,inhibition at 0.111111 µM,IL-6; 111.1111 nM,-3.5%
same,inhibition at 0.333333 µM,IL-6; 333.3333 nM,-2.83%
same,inhibition at 1 µM,IL-6; 1000 nM,-0.89%
same,inhibition at 3 µM,IL-6; 3000 nM,-1.97%
"Cc1nc(Br)ccc1NC(=O)c1ccc2c(c1)CC[C@@H]1C[C@@](O)(c3ccccc3)[C@](C)(O)C[C@@]21Cc1ccccc1 [Comparator B, (4bR,6R,7R,8aR)-4b-benzyl-N-(6-bromo-2-methylpyridin-3-yl)-6,7-dihydroxy-6-methyl-7-phenyl-4b,5,6,7,8,8a,9,10-octahydrophenanthrene-2-carboxamide]",ED50,"LPS-induced TNFα; 672 h, read-out: TNFα Suppression (ED50 dose)",0.083 mg/kg
same,TNFα Suppression (ED80 dose),LPS-induced TNFα,0.45
same,ED50 at 28 days,"osteocalcin; female, Swiss Webster, read-out: Osteocalcin Suppression (ED50 dose)",0.21 mg/kg
same,Osteocalcin Suppression (ED80 dose),osteocalcin,0.97
same,ED50 at 28 days,"serum insulin; female, Swiss Webster, read-out: Insulin (ED50 dose)",1.04 mg/kg
same,Insulin (ED80 dose),serum insulin,7.58
